The values below are quoted from earlier work in paper PMC11510164 (Pharmaceuticals, 2024).

Structures are written as SMILES.

Test system in the first data set: not given
The settings on record: 25 °C.
Consider `Cc1cccc(Nc2ccccc2C(=O)O)c1C` [MFA, Mefenamic acid, reference compound], for which the water solubility was 0.01 to 0.02 mg/mL.

Still in this data set, the particulars now being: pure component (ChCl: solid); ref per cell: 90, 123, 125, 126, 127, 129, 137, 139.
As for `CC1CCC(C(C)C)C(O)C1` (racemic) [MNT, (±)-menthol], the “Density (g/cm^3)” value was 0.89 [90] g/cm^3.

For `N=C(N)NCCC[C@H](N)C(=O)O` [Arg, L-Arginine], the “Density (g/cm^3)” value is 1.42 [126] g/cm^3.

Turning to `C[N+](C)(C)CCO` [ChCl, Choline chloride], the “Density” value is around 1.205 g/mL.

With `N[C@@H](CS)C(=O)O` [Cys, L-Cysteine], the “Density (g/cm^3)” value was 1.66 [126] g/cm^3.

As for `CCCCCCCCCC(=O)O` [Dec, Decanoic acid (capric acid)], the “Density (g/cm^3)” value was 0.89 [126] g/cm^3.

Consider `OC[C@H]1OC(O)(CO)[C@@H](O)[C@@H]1O` (stereo partly drawn) [Fru, D-(−)-fructose], for which the “Density (g/cm^3)” value was 1.60 [126] g/cm^3.

Take `O=C(O)CO` [Gla, Glycolic acid]: the “Density (g/cm^3)” value is 1.26 [126] g/cm^3.

Consider `OC[C@H]1O[C@H](O)[C@H](O)[C@@H](O)[C@@H]1O` [Glu, D-(+)-glucose], for which the “Density (g/cm^3)” value was 1.5620 [126] g/cm^3.

As for `OCC(O)CO` [Gly, Glycerol], the “Density (g/cm^3)” value is 1.26 [129] g/cm^3.

Take `CC(C)Cc1ccc(C(C)C(=O)O)cc1` (stereo not shown) [IBU, Ibuprofen, reference compound]: the “Density (g/cm^3)” value is 1.03 [123] g/cm^3.

Regarding `CCCCCCCCCCCCCC(=O)OC(C)C` [IPM, Isoporpyl miristate], the “Density (g/cm^3)” value is 0.85 [126] g/cm^3.

With `C[C@H](O)C(=O)O` [Lac, L-lactic acid], the “Density (g/cm^3)” value was 1.25 [129] g/cm^3.

For `C=C(C)[C@H]1CC=C(C)CC1` [Lim, (R)-(+)-limonene], the “Density (g/cm^3)” value was 0.84 [126] g/cm^3.

Take `Cc1cccc(Nc2ccccc2C(=O)O)c1C` [MFA, Mefenamic acid, reference compound]: the “Density (g/cm^3)” value is 1.20 [125] g/cm^3.

Turning to `CCCCCCCC/C=C\CCCCCCCC(=O)O` [OLA, Oleic acid], the “Density (g/cm^3)” value is 0.89 [126] g/cm^3.

`O=C(O)C(=O)O` [Oxa, Oxalic acid]: the “Density (g/cm^3)” value is 1.90 [126] g/cm^3.

As to `CC(O)CO` (stereo not shown) [PG, Propylene glycol], the “Density (g/cm^3)” value is 1.04 [126] g/cm^3.

Turning to `OC[C@@H](O)[C@@H](O)[C@H](O)[C@@H](O)CO` [Sor, D-(−)-sorbitol], the “Density (g/cm^3)” value was 1.47 [129] g/cm^3.

As to `OC[C@@H](O)[C@H](O)[C@@H](O)CO` [Xyl, Xylitol], the “Density (g/cm^3)” value is 1.50 [137] g/cm^3.

The data set is the same for the next values; noted with them: sol. 70%.
In the case of `C[N+](C)(C)CCO` [ChCl, Choline chloride], the “Density” value is around 1.1 g/mL.

In a further data set the test system is rats. The settings on record: rat, in vivo, po.
By LD50 is commonly meant the dose expected to kill half of the subjects tested. Consider `CC1CCC(C(C)C)C(O)C1` (racemic) [MNT, (±)-menthol], for which the LD50 was 3000 mg/kg.
